Tests used:
Format in all cases: functional
MDA-MB-231 = test: Cytotoxicity against human MDA-MB-231 cells by SRB assay
A549 = test: Cytotoxicity against human A549 cells by SRB assay
HT-29 = test: Cytotoxicity against human HT-29 cells by SRB assay

Compound | GI50 (MDA-MB-231) [µM] | GI50 (A549) [µM] | GI50 (HT-29) [µM]
COC(=O)C(C)/C=C/[C@@H](C)[C@H]1CC[C@H]2[C@@H]3CCC4=CC(=O)C=C[C@]4(C)[C@H]3CC[C@]12C (stereo partly drawn) | 22.4 | 21.4 | 20.2
COC(=O)/C(C)=C/CC[C@@H](C)[C@H]1CC[C@H]2[C@@H]3CCC4=CC(=O)C=C[C@]4(C)[C@H]3CC[C@]12C | 21.2 | 16.5 | 15.3
COC(=O)/C(C)=C/C[C@@H](OC(C)=O)[C@@H](C)[C@H]1CC[C@H]2[C@@H]3CCC4=CC(=O)C=C[C@]4(C)[C@H]3CC[C@]12C | 18.4 |  | 
C=C(CC[C@](C)(O)[C@H]1CC[C@H]2[C@@H]3CCC4=CC(=O)C=C[C@]4(C)[C@H]3CC[C@@]21C)C(C)C |  | 23.4 | 

Reference: ChEMBL document CHEMBL1141759, “Steroids from the Antarctic octocoral Anthomastus bathyproctus” (2005)
